According to patent US8795632B2, “Disease animal model for chronic pain” (Astellas Pharma Inc., priority 2008, dated 2014):

Assays:
Type in all cases: in vivo, rat
Settings in all cases: reserpine 3 mg/kg single s.c.
Sprague-Dawley rats [1] = assay: Skin pain sensation threshold value after reserpine single administration
Description: Measurement of the skin pain sensation threshold value was carried out in the same manner as in Example 1. That is, this was measured using a series of von Frey filaments having different diameter which can add a constant pressure. […] The von Frey filament was applied using the up and down method. That is, by firstly applying a filament of about middle diameter, a filament having one rank smaller diameter was applied when the withdrawal reaction was observed or a filament having one rank larger diameter was applied when the withdrawal reaction was not observed. The skin pain sensation threshold value at each point of time was calculated as a hind paw withdrawal reaction threshold value (g).
Influences of the reserpine single administration upon the muscle pressure pain threshold value, skin pain sensation threshold value, cold sensitivity and heat sensitivity were examined in accordance with the following protocol. A total of 12 male rats were used. The muscle pressure pain threshold value, skin pain sensation threshold value, cold sensitivity and heat sensitivity before the reserpine treatment (base lines) were measured and then they were divided into a solvent (0.5% acetic acid aqueous solution) group and a reserpine (3 mg/kg) group (the number of animals per group was 6). […] The muscle pressure pain threshold value, skin pain sensation threshold value, cold sensitivity and heat sensitivity of each rat were measured at the points of measurement time of acute phase after administration of the solvent or reserpine (2, 4, 8 and 24 hours) and chronic phase (2, 3, 5, 7, 10, 14 and 21 days).
All of the measured values were expressed as average value±standard error. Statistical significance test of the measured values between the reserpine administration groups and the solvent administration group at each point of time was carried out by the two-way analysis of variance and the Bonferroni method. Probability value (P) of less than 5% was judged as statistically significant (P<0.05 was expressed as * in the graphs).

Sprague-Dawley rats [2] = assay: Heat sensitivity (Hargreaves method) after reserpine single administration
Description: Measurement of the heat sensitivity was carried out by the method of Hargreaves et al. (Hargreaves et al., Pain, 32, 77-88, 1988). A transparent measuring box was put on a glass plate supported with platforms and a rat was put therein and acclimatized. A mobile infrared heat source was arranged under the glass plate and focused on the plantar surface of the right hind paw of the rat. A latency time required for the rat to show a withdrawal reaction of right hind leg from the heat source was measured as a withdrawal latency time and used as the index of heat sensitivity. According to this measuring system, shorter withdrawal latency time represents acceleration of the skin heat sensitivity.
Influences of the reserpine single administration upon the muscle pressure pain threshold value, skin pain sensation threshold value, cold sensitivity and heat sensitivity were examined in accordance with the following protocol. A total of 12 male rats were used. The muscle pressure pain threshold value, skin pain sensation threshold value, cold sensitivity and heat sensitivity before the reserpine treatment (base lines) were measured and then they were divided into a solvent (0.5% acetic acid aqueous solution) group and a reserpine (3 mg/kg) group (the number of animals per group was 6). […]
All of the measured values were expressed as average value±standard error. […]

[3] = tested on: dopamine, norepinephrine, serotonin, DOPAC, MHPG and 5-HIAA in the spinal cord, thalamus and prefrontal cortex; assay: Amounts of dopamine, norepinephrine, serotonin, DOPAC, MHPG and 5-HIAA in spinal cord, thalamus and prefrontal cortex after reserpine single administration (HPLC-ECD)
Description: Male Sprague-Dawley rats (7 weeks old, Japan SLC, Hamamatsu, Japan) were used as the animal.
A total of 72 rats were divided into 12 test schedules (collection of samples before the administration, 2, 4, 8 and 24 hours after the administration and 2, 3, 5, 7, 10, 14 and 21 days thereafter) and further divided each of them into a vehicle (0.5% acetic acid aqueous solution) administration group and a reserpine 3 mg/kg administration group, to 3 rats per group. As shown in Example 5, the vehicle or 3 mg/kg of reserpine was administered subcutaneously only once to each rat, and the brain and spinal cord were quickly collected after 2, 4, 8 or 24 hours or 2, 3, 5, 7, 10, 14 or 21 days of the administration. The thalamus and prefrontal cortex were separated from the brain on an ice-cold dish. Regarding the sampling before administration, samples were collected before beginning of the administration of the vehicle or reserpine. The collected samples were quickly frozen and stored at −80° C. until their use in the measurements. On the day of the measurement, tissues of respective samples were subjected to wet weight measurement, homogenized in 0.2 M perchloric acid/0.1 mM EDTA-2Na solution using an ultrasonic homogenizer. After centrifugation at 15,000 g and at 4° C. for 15 minutes, the supernatant was adjusted to pH 3.5 using sodium acetate and filtered using a filter. Amounts of dopamine, norepinephrine, serotonin, DOPAC, MHPG and 5-HIAA in these samples were measured using a high performance liquid chromatography (column: SC-50DS 3.0, 150 mm, Eicom Co., Ltd., Kyoto, Japan, mobile phase composition: 0.1 M sodium acetate buffer, 0.1 M citrate buffer, pH 3.5, 5 mg/l EDTA-2Na, 200 mg/l sodium octane sulfonic acid, 16% methanol) and an electrochemical detector (ECD-300, Eicom Co., Ltd., Kyoto, Japan). The measurement was carried out under conditions of flow rate 0.5 ml/min, applied voltage 750 mV and 25° C. Amounts of dopamine, norepinephrine, serotonin, DOPAC, MHPG and 5-HIAA in the samples were quantified by comparing sample peak areas of respective standards measured on the same day of the sample measurement.
All of the measured values were expressed as average value±standard error in the graphs, and unit of the measured values was set to ng/g tissue wet weight. Statistical difference of the measured values between the reserpine administration group and the vehicle administration group in each test schedule was carried out by the two-way analysis of variance and the Bonferroni method. Probability value (P) of less than 5% was judged as statistically significant (P<0.05 was expressed as * in the graphs).

[4] = after 2, 4, 8 and 24 hours and 2, 3, 5, 7, 10, 14 and 21 days

COC(=O)[C@H]1[C@H]2C[C@@H]3c4[nH]c5cc(OC)ccc5c4CCN3C[C@H]2C[C@@H](OC(=O)c2cc(OC)c(OC)c(OC)c2)[C@@H]1OC [reserpine]
time after administration at which transient acute-phase tactile allodynia recovers (Sprague-Dawley rats [1]): 4 h
skin pain sensation threshold value (Sprague-Dawley rats [1]; 2, 3, 5, 7, 10, 14 and 21 days after administration): significantly reduced
skin pain sensation threshold value (Sprague-Dawley rats [1]; after 2 hours): significantly reduced
time after administration at which transient acute-phase acceleration of heat sensitivity recovers (Sprague-Dawley rats [2]): 8 h
heat sensitivity: withdrawal latency time (Sprague-Dawley rats [2]; 2 and 4 hours and 2 and 5 days after administration): significantly shortened
amount of DOPAC in the prefrontal cortex ([3]; after 2, 3, 5, 7, 10 and 14 days): significantly reduced
amount of 5-HIAA in the thalamus ([3]; after 2, 4, 8 and 24 hours): significantly increased
amount of DOPAC in the spinal cord ([3]; after 2, 4, 8 and 24 hours): significantly increased
amount of dopamine in the spinal cord [3, 4]: significantly reduced
amount of dopamine in the thalamus [3, 4]: significantly reduced
amount of norepinephrine in the prefrontal cortex [3, 4]: significantly reduced
amount of norepinephrine in the spinal cord [3, 4]: significantly reduced
amount of norepinephrine in the thalamus [3, 4]: significantly reduced
amount of serotonin in the spinal cord [3, 4]: significantly reduced
amount of dopamine in the prefrontal cortex ([3]; after 2, 4, 8 and 24 hours and 2, 3, 5, 7, 10 and 14 days): significantly reduced
amount of serotonin in the prefrontal cortex ([3]; after 2, 4, 8 and 24 hours and 2, 3, 5, 7 and 10 days): significantly reduced
amount of 5-HIAA in the spinal cord ([3]; after 4, 8, 24 hours and 2 days): significantly increased
amount of serotonin in the thalamus ([3]; after 8 and 24 hours and 3, 5, 7 and 10 days): significantly reduced
amount of MHPG in the prefrontal cortex ([3]; after 4 hours and 7 days): significantly reduced
amount of MHPG in the spinal cord ([3]; after 4 hours and 7 days): significantly reduced
amount of 5-HIAA in the prefrontal cortex ([3]; after 8 hours and 2, 3, 5, 7, 10, 14 and 21 days): significantly reduced
amount of DOPAC in the spinal cord ([3]; after 2 days and later): did not significantly change
amount of DOPAC in the thalamus ([3]; all time points): did not significantly change
amount of MHPG in the thalamus ([3]; all time points): did not significantly change
amount of 5-HIAA in the thalamus ([3]; in and after 2 days): no significant difference
amount of 5-HIAA in the spinal cord ([3]; in and after 3 days): did not significantly change
amount of DOPAC in the prefrontal cortex ([3]; within 24 hours after the administration): did not significantly change
